Each structure is given as a SMILES string. Starred links: 1 amine or outer side, 2 acyl side, 3 side chain; linkers in the order of their positions; H or OH if unused. Positions of bridges follow the written chain, without caps; N, C: chain ends. Residues, ends and D or L forms follow the SMILES beside them. *: point of attachment. C20 diacid = O=C(O)CCCCCCCCCCCCCCCCCCC(=O)*; γGlu = O=C(O)[C@H](CCC(=O)[*:2])N[*:1]

Series [1] has as its system food intake. Briefly: Assay (I) efficacy testing on appetite (food intake), ad libitum fed rat model. It is filed as in vivo, Sprague Dawley (SD) rats. The settings on record: 3 nmol/kg. The procedure, abridged: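 Sprague Dawley rats (200–250 g), single-housed under reversed light cycle with free food and water, got one ip, po or sc dose of 0.01–3 mg/kg just before lights-off. Individual food intake recorded hourly for 7 h, then at 24 h and sometimes 48 h; groups of 5–8, Grubbs outliers excluded.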

Series [2] is described as follows: Assay (III) ThT fibrillation assay for physical stability. It is filed as physicochemical. The settings on record: ThT fibrillation assay. The procedure, abridged:
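Freshly prepared formulations, pH-adjusted, with 1 μM ThT; four or eight replicates incubated at 37 °C under 960 rpm orbital shaking. Fluorescence (ex 444/em 485 nm) read every 20 min; […]. Peptide concentration measured by RP-HPLC before and after the run.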

As to `CC[C@H](C)[C@H](NC(=O)[C@@H]1CCCN1C(=O)CNC(=O)[C@H](Cc1ccccc1)NC(=O)[C@H](CC(N)=O)NC(=O)[C@H](CC(N)=O)NC(=O)[C@H](CO)NC(=O)[C@H](CO)NC(=O)[C@H](CCCNC(=N)N)NC(=O)[C@H](Cc1c[nH]cn1)NC(=O)[C@H](CC(C)C)NC(=O)[C@H](Cc1ccccc1)NC(=O)[C@H](CCC(=O)O)NC(=O)[C@H](C)NC(=O)[C@H](CC(C)C)NC(=O)[C@H](CCCNC(=N)N)NC(=O)[C@H](CCC(N)=O)NC(=O)[C@@H](NC(=O)[C@H](C)NC(=O)[C@@H]1CSSC[C@H](NC(=O)[C@H](CCC(=O)O)NC(=O)CC[C@H](NC(=O)CCCCCCCCCCCCCCCCCCC(=O)O)C(=O)O)C(=O)N[C@@H](CC(N)=O)C(=O)N[C@@H]([C@@H](C)O)C(=O)N[C@@H](C)C(=O)N[C@@H]([C@@H](C)O)C(=O)N1)[C@@H](C)O)C(=O)N[C@@H](CC(C)C)C(=O)N1CCC[C@H]1C(=O)N1CCC[C@H]1C(=O)N[C@H](C(=O)N[C@@H](CC(N)=O)C(=O)N[C@H](C(=O)NCC(=O)N[C@@H](CO)C(=O)N[C@@H](CC(N)=O)C(=O)N[C@H](C(=O)N1CCC[C@H]1C(N)=O)[C@@H](C)O)C(C)C)[C@@H](C)O` [Example 10, N-alpha-[(S)-4-Carboxy-4-(19-carboxynonadecanoylamino)butyryl]-[Glu1,Glu14,His17,Arg18,Pro37]-pramlintide] ({C20 diacid-γGlu}-ECNTATCATQRLAEFLHRSSNNFGPILPPTNVGSNTP-NH2; disulfide 2-7), the “Food intake reduction 0-24 h 3 nmol/kg (%)” value in series [1] (0-24 h) was found to be 50%. In series [1] (24-48 h), the “Food intake reduction 24-48 h 3 nmol/kg (%)” value was determined as 40%.

Regarding `CC[C@H](C)[C@H](NC(=O)[C@@H]1CCCN1C(=O)CNC(=O)[C@H](Cc1ccccc1)NC(=O)[C@H](CC(N)=O)NC(=O)[C@H](CC(N)=O)NC(=O)[C@H](CO)NC(=O)[C@H](CO)NC(=O)[C@H](Cc1c[nH]cn1)NC(=O)[C@@H](NC(=O)[C@H](CC(C)C)NC(=O)[C@H](Cc1ccccc1)NC(=O)[C@H](CCC(=O)O)NC(=O)[C@H](C)NC(=O)[C@H](CC(C)C)NC(=O)[C@H](CCCNC(=N)N)NC(=O)[C@H](CCC(N)=O)NC(=O)[C@@H](NC(=O)[C@H](C)NC(=O)[C@@H]1CSSC[C@H](NC(=O)[C@H](CCCCN)NC(=O)CC[C@H](NC(=O)CCCCCCCCCCCCCCCCCCC(=O)O)C(=O)O)C(=O)N[C@@H](CC(N)=O)C(=O)N[C@@H]([C@@H](C)O)C(=O)N[C@@H](C)C(=O)N[C@@H]([C@@H](C)O)C(=O)N1)[C@@H](C)O)C(C)C)C(=O)N[C@@H](CC(C)C)C(=O)N1CCC[C@H]1C(=O)N1CCC[C@H]1C(=O)N[C@H](C(=O)N[C@@H](CC(N)=O)C(=O)N[C@H](C(=O)NCC(=O)N[C@@H](CO)C(=O)N[C@@H](Cc1c[nH]cn1)C(=O)N[C@H](C(=O)N[C@@H](Cc1ccc(O)cc1)C(N)=O)[C@@H](C)O)C(C)C)[C@@H](C)O` [Example 93, N-alpha-[(S)-4-Carboxy-4-(19-carboxynonadecanoylamino)butyryl]-[Glu14,His35]-pramlintide] ({C20 diacid-γGlu}-KCNTATCATQRLAEFLVHSSNNFGPILPPTNVGSHTY-NH2; disulfide 2-7 (inferred); C-terminus assumed), in series [2], the “ThT pH 4.0 lag time (h)” value turned out to be 19 h.

The values are drawn from patent publication US8722849B2, “Polypeptides” (Novo Nordisk A/S, priority 2011, dated 2014).
